Assays:
[1] = Therapeutical effect on olive oil-induced triglyceride hyperlipidemia models; format: in vivo; conditions: once a day for one week, SD rats, 2 h after olive oil
Procedure: Test of Therapeutical Effect on Olive Oil-Induced Triglyceride Hyperlipidemia Models
To conduct this test, 6-week-old SD rats (purchased from Charles River Japan) were used.
According to the body weight of the test rats when they were 5 weeks old, the test rats were divided into test groups and a control group with 6 rats per group.
A predetermined amount of each compound prepared in the Examples was measured and placed in an agate mortar. While 5% aqueous gum arabic solution was gradually introduced to the mortar, the compound was uniformly ground and suspended. Test samples were prepared by further adding 5% aqueous gum arabic solution gradually. Subsequently, these test samples were subjected to ultrasonic washing for 10 minutes to homogenize. Test samples were prepared as and when necessary.
The rats of the test groups were orally administered with the compounds of the invention such that rats received the compounds in an amount of 10, 30, or 100 mg/kg. The compounds of the invention were formulated as 5% gum arabic suspensions as described above.
The rats of the control group were orally administered with 5% aqueous gum arabic solution (not containing the compounds of the invention) in an amount of 5 ml/kg body weight. Administration was conducted once a day continuously for one week at a specific time of day after the rats reached 6 weeks of age. This test was performed under non-fasting conditions (rats had free access to feed and water), and the rats were fasted after the final administration of the compounds or 5% aqueous gum arabic solution.
Two hours after the final administration, olive oil was orally administered to the rats from both groups in an amount of 3 ml/kg body weight.
Two hours after the olive oil administration, blood was collected from the abdominal aorta of the rats of the respective groups using a heparinized syringe. The plasma was centrifugally separated from the blood at a temperature of 4° C., and the triglyceride level of the plasma was measured. A Hitachi 7170 automatic analyzer was used as the measuring instrument. Using the values measured from the test groups and control group, the decrease (%) in plasma triglyceride level was calculated according to the following equation: Decrease (%) in plasma triglyceride concentration=(1−E/C)×100 wherein E represents the average plasma triglyceride level in each test group; and C represents the average plasma triglyceride level in the control group.

[2] = Anti-obesity test using AKR mice (high-fat feed); format: in vivo; conditions: 1 mg per gram of feed in high-fat feed, 7 weeks, AKR/J mice, relative to high-fat feed control group
Text: Anti-Obesity Test Using AKR Mice
Furthermore, this test enables the evaluation of therapeutic effects on diabetes. That is, it is reported that insulinemia can be observed in AKR/J mice when they are fed with a high-fat diet (see Am. J. Physiol. 266 (5 Pt 2), May 1994: R1423-8). It is thus known that insulinemia is strongly associated with diabetes (see, for example, J. Cardiovasc. Nurs. 16 (2), January 2002: 17-23). Therefore, this test can verify the therapeutic effects of the compounds of the present invention, used as test compounds, on diabetes.
For rat feed, powdered CRF-1 (Charles River Formula 1, manufactured by Oriental Yeast, Co., Ltd.) was used as normal feed. As high-fat feed, that prepared by blending CRF-1 with 18% safflower oil (Oriental Yeast, Co., Ltd.) was used.
Test substances were blended with the high-fat feed in an amount of 1 mg per gram of CRF-1.
AKR/J mice (from CLEA Japan, Inc.) were purchased at the age of 4 weeks. They were roughly divided into 2 groups according to body weight when the mice reached 5 weeks old. During this period, all mice were given the normal feed.
Subsequently, the mice of one group (8 mice) continued to be fed with the normal feed (normal feed group). The mice of the other group (8×(the number of the test substances+1) mice) were given the high-fat feed (high-fat feed group).
The body weight of the mice of each group was measured daily. […] These mice were further reared for 7 weeks (“test substances+high-fat feed groups”; n=8 per type of test substance). Specifically, the administration of the test substances was continued for 7 weeks. A group of mice to which high-fat feed containing no test substance was continued to be given was used as a control (high-fat feed control group; n=8).
Four hours after the feeding on the last day of the 7-week test (the last day of the test), the body weight of the mice of the “test substances+high fat feed groups” was measured. Blood was collected from the abdominal aorta of the mice using a heparinized syringe, and the leptin and insulin levels in the plasma were measured using an Elisa kit (produced by Morinaga). The mice of the other groups (normal feed group and high-fat feed control group) were reared till the last day of the test as above, and 4 hours after the last feeding on the last day of the test the measurements were performed according to the same procedures.
The average values of the test results (body weight, leptin level, and insulin level) of the test substances+high-fat feed groups to which the compounds prepared in Examples (Examples 10 and 58) were used as test substances (hereinbelow referred to as the “Example Compound 10-mixed high-fat feed group” and “Example Compound 58-mixed high-fat feed group”) were compared with the respective average values (standard values) of the results obtained from the mice of the high-fat control group to obtain the variations (differences). The differences were expressed as percentages in relation to the standard values. The values thus calculated were referred to as “weight change (%)”, “leptin level change (%)”, and “insulin level change (%)”. In the table below, the symbols “−” (minus) indicate that the differences are negative relative to the standard values.

[3] = Anti-obesity test using Zucker fatty rats; format: in vivo; conditions: 100 mg/kg oral, once a day over 4 weeks, relative to control group
Text: Anti-Obesity Test Using Zucker Fatty Rats
Zucker fatty rats are obese rats discovered by Zucker et al., in 1961 as mutants among 13 M rats, which are a hybrid between 13C and M rats. These rats (fa/fa) start to appear distinctly obese from normal broods around the age of 3 weeks. As they age, the weight difference between the fatty rats and normal rats increases. Zucker fatty rats are currently kept by a variety of organizations as simple obesity models, and are readily obtainable.
This test was performed using this rat model to evaluate the anti-obesity action of the compounds of the invention. The preparation method of test samples and the test procedures are described below:
The test samples were prepared in the same manner as in Test Example 2.
Zucker fatty rats and lean rats (both from Charles River Japan) were purchased at the age of 5 weeks. They were divided into groups (10 rats per group) according to body weight when they reached 6 weeks old. After acclimatization, the administration of test samples was initiated when the rats reached 8 weeks old. Test samples were orally administered using an oral gavage so that the compounds of the invention contained in the test samples were given in an amount of 100 mg/kg body weight (test sample dosage: 5 ml/kg body weight). The test samples were administered once a day over 4 weeks at a specific time of day.
As a control, a group of rats were administered with the same amount of 5% aqueous gum arabic solution (5 ml/kg body weight) instead of the test samples.
The rats of all groups were weighed on the last day of administration. The average body weight of the rats of each test group was compared with the average body weight (standard weight) of the rats of the control group to obtain the weight variations (differences). The weight differences were expressed as percentages in relation to the standard weight. The values thus calculated are referred to as “weight change %”. When a weight difference is negative relative to the standard weight, weight change % is shown with “−” (minus).
During the test period, the rats of the respective groups had free access to rat feed (“CRF-1”, manufactured by Oriental Yeast, Co., Ltd.) and water (tap water).

With `COc1cc(-c2cn3ccccc3n2)ccc1OCc1ccc(Br)cc1F` [Example 58] as the compound, how does the “Decrease in plasma triglyceride level (%)” value (shortened to “Decrease … (%)”) ([1]; 10 mg/kg oral) read?
Its value is 31%.

And the “Decrease … (%)” value ([1]; 30 mg/kg oral)?
Its value is 66%.

And the “Decrease … (%)” value ([1]; 100 mg/kg oral)?
The value was 79%.

And the “Weight Change (%)” value [2]?
The value was −10%.

What about the “Insulin level change (%)” value ([2]; plasma) of the same compound?
Its value is −12%.

What about the “Leptin level change (%)” value ([2]; plasma) of the same compound?
The value was −55%.

And the melting point?
The melting point was 111 to 113 °C.

And the “Weight Change (%)” value [3]?
Its value is −19%.

— patent US8895599B2, “Lipoprotein lipase-activating compositions comprising benzene derivates” (Otsuka Pharmaceutical Factory, Inc., priority 2008, dated 2014)
